Test results published in patent US20250230193A1, “CYCLIC COMPOUND HAVING SELECTIVE KRAS INHIBITORY EFFECT ON HRAS AND NRAS” (CHUGAI SEIYAKU KABUSHIKI KAISHA, priority 2022, published 2025).

Columns and labels:
[1] = molecular target: GDP-bound NRAS wild-type protein (Homo sapiens, UniProt P01111); assay: Binding to NRAS by surface plasmon resonance (SPR), Single Cycle Kinetics; details: SPR; KD ratio class
[2] = test system: human lung cancer strain NCI-H441; assay: cells; details: NCI-H441, 96 h, read-out: NCI-H441 IC50 (nM)
[3] = molecular target: GDP-bound HRAS wild-type protein (Homo sapiens, UniProt P01112); assay: Binding to HRAS by surface plasmon resonance (SPR), Single Cycle Kinetics; details: SPR; KD ratio class
Chain of GDP-bound HRAS wild-type protein (P01112 whole entry): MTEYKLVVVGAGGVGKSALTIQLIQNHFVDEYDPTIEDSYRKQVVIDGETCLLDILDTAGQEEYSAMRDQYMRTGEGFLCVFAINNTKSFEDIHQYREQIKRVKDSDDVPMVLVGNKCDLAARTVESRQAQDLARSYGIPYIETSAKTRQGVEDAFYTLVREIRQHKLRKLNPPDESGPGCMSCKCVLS

Chain of GDP-bound NRAS wild-type protein (P01111 whole entry): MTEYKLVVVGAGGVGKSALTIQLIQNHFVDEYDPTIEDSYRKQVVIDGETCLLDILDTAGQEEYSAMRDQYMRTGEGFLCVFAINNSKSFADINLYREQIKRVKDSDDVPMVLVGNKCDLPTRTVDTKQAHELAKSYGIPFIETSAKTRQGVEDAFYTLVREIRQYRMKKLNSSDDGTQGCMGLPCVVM

Row | Structure (SMILES) | NRAS/KRAS (ratio of KD value for GDP-bound NRAS wild-type protein to KD value for KRAS) [1] | IC50 [2] | HRAS/KRAS (ratio of KD value for GDP-bound HRAS wild-type protein to KD value for KRAS) [3]
1 | CCO[C@@H]1C[C@H]2C(=O)NC3(CCC3)C(=O)N(C)[C@@H](C(CC)CC)C(=O)N(C)[C@H](C(=O)N(C)C)CC(=O)N(C)[C@@H](COC)C(=O)N[C@@H]([C@@H](C)CC)C(=O)N(C)CC(=O)N(C)[C@H]3C/C=C\CCN(C3=O)[C@@H](Cc3ccc(C(F)(F)F)cc3)C(=O)N(C)CC(=O)N[C@@H](CCc3ccc4sccc4c3)C(=O)N2C1 [PP1229] | A (a compound having 10 or more and less than 20 is denoted as A) | 144 nM | A (a compound having 10 or more and less than 20 is denoted as A)
2 | CCO[C@@H]1C[C@H]2C(=O)NC3(CC(C)(C)C3)C(=O)N(C)[C@@H](C3CCCC3)C(=O)N(C)[C@H](C(=O)N(C)C)CC(=O)N(C)[C@@H](CC3CC3)C(=O)N[C@@H]([C@@H](C)CC)C(=O)N(C)CC(=O)N(C)[C@H]3C/C=C\CCN(C3=O)[C@@H](Cc3ccc(C(F)(F)F)cc3)C(=O)N(C)CC(=O)N[C@@H](CCc3cc(F)c(C(F)(F)F)c(F)c3)C(=O)N2C1 [PP1568] | A (a compound having 10 or more and less than 20 is denoted as A) | 2.2 nM | A (a compound having 10 or more and less than 20 is denoted as A)
3 | CCO[C@@H]1C[C@H]2C(=O)NC3(CCC3)C(=O)N(C)[C@@H](C3CCCC3)C(=O)N(C)[C@H](C(=O)N(C)C)CC(=O)N(C)[C@@H](CC3CCC3)C(=O)N[C@@H]([C@@H](C)CC)C(=O)N(C)CC(=O)N(C)[C@H]3C/C=C\CCN(C3=O)[C@@H](CC3CCCCC3)C(=O)N(C)CC(=O)N[C@@H](CCc3cc(F)c(C(F)(F)F)c(F)c3)C(=O)N2C1 [PP1469] | A (a compound having 10 or more and less than 20 is denoted as A) | 22.2 nM | A (a compound having 10 or more and less than 20 is denoted as A)
4 | CC[C@H](C)[C@@H]1NC(=O)[C@H](CC)N(C)C(=O)C[C@@H](C(=O)N(C)C)N(C)C(=O)[C@H](C2CCCC2)N(C)C(=O)C2(CCCC2)NC(=O)[C@@H]2CCCN2C(=O)[C@H](CCc2ccc(C(F)(F)F)c(Cl)c2)NC(=O)CN(C)C(=O)[C@H](Cc2ccc(C(F)(F)F)cc2)N2C[C@H](C)CC[C@@H](C2=O)N(C)C(=O)CN(C)C1=O [PP1336] | B (a compound having 3 or more and less than 10 is denoted as B) | 10.8 nM | B (a compound having 3 or more and less than 10 is denoted as B)
5 | CCO[C@@H]1C[C@H]2C(=O)NC3(CCC3)C(=O)N(C)[C@@H](C(CC)CC)C(=O)N(C)[C@H](C(=O)N(C)C)CC(=O)N(C)[C@@H](COC)C(=O)N[C@@H]([C@@H](C)CC)C(=O)N(C)CC(=O)N(C)[C@H]3C/C=C\CCN(C3=O)[C@@H](Cc3ccc(C(F)(F)F)cc3)C(=O)N(C)CC(=O)N[C@@H](CCc3ccc(Cl)c(Cl)c3)C(=O)N2C1 [PP1221] | AA (a compound having 20 or more is denoted as AA) | 40.6 nM | A (a compound having 10 or more and less than 20 is denoted as A)
6 | CCO[C@@H]1C[C@H]2C(=O)NC3(CCC3)C(=O)N(C)[C@@H](C(CC)CC)C(=O)N(C)[C@H](C(=O)N(C)C)CC(=O)N(C)[C@@H](CC3CC3)C(=O)N[C@@H]([C@@H](C)CC)C(=O)N(C)CC(=O)N(C)[C@H]3C/C=C\CCN(C3=O)[C@@H](CC3CCCCC3)C(=O)N(C)CC(=O)N[C@@H](CCc3cc(F)c(C(F)(F)F)c(F)c3)C(=O)N2C1 [PP1428] | AA (a compound having 20 or more is denoted as AA) | 38.8 nM | A (a compound having 10 or more and less than 20 is denoted as A)
7 | CCO[C@@H]1C[C@H]2C(=O)NC3(CC(C)(C)C3)C(=O)N(C)[C@@H](C3CCCC3)C(=O)N(C)[C@H](C(C)C)CC(=O)N(C)[C@@H](CC)C(=O)N[C@@H]([C@@H](C)CC)C(=O)N(C)CC(=O)N(C)[C@H]3C/C=C\CCN(C3=O)[C@@H](CC3CCCCC3)C(=O)N(C)CC(=O)N[C@@H](CCc3cc(F)c(C(F)(F)F)c(F)c3)C(=O)N2C1 [PP1603] | B (a compound having 3 or more and less than 10 is denoted as B) | 132 nM | B (a compound having 3 or more and less than 10 is denoted as B)
8 | CCCCCC[C@H]1C(=O)N[C@@H]([C@@H](C)CC)C(=O)N(C)CC(=O)N(C)[C@H]2C/C=C\CCN(C2=O)[C@@H](Cc2ccc(C(F)(F)F)cc2)C(=O)N(C)CC(=O)N[C@@H](CCc2ccc(Cl)c(Cl)c2)C(=O)N2C[C@H](OCC)C[C@H]2C(=O)NC2(CCC2)C(=O)N(C)[C@@H](C(CC)CC)C(=O)N(C)[C@H](C(=O)N(C)C)CC(=O)N1C [PP1218] | AA (a compound having 20 or more is denoted as AA) | 67.9 nM | A (a compound having 10 or more and less than 20 is denoted as A)
9 | CCO[C@@H]1C[C@H]2C(=O)NC3(CCC3)C(=O)N(C)[C@@H](C(CC)CC)C(=O)N(C)[C@H](C(=O)N(C)C)CC(=O)N(C)[C@@H](CC)C(=O)N[C@@H]([C@@H](C)CC)C(=O)N(C)CC(=O)N(C)[C@H]3C/C=C\CCN(C3=O)[C@@H](Cc3ccc(C(F)(F)F)cc3)C(=O)N(C)CC(=O)N[C@@H](CCc3ccc4sccc4c3)C(=O)N2C1 [PP1223] | AA (a compound having 20 or more is denoted as AA) | 117 nM | A (a compound having 10 or more and less than 20 is denoted as A)
10 | CCO[C@@H]1C[C@H]2C(=O)NC3(CCC3)C(=O)N(C)[C@@H](C3CCCC3)C(=O)N(C)[C@H](C(=O)N(C)C)CC(=O)N(C)[C@@H](CC3CC3)C(=O)N[C@@H]([C@@H](C)CC)C(=O)N(C)CC(=O)N(C)[C@H]3C/C=C\CCN(C3=O)[C@@H](Cc3ccc(F)cc3)C(=O)N(C)CC(=O)N[C@@H](CCc3ccc4sccc4c3)C(=O)N2C1 [PP1426] | A (a compound having 10 or more and less than 20 is denoted as A) | 475 nM | B (a compound having 3 or more and less than 10 is denoted as B)
11 | CCO[C@@H]1C[C@H]2C(=O)NC3(CC(C)(C)C3)C(=O)N(C)[C@@H](C3CCCC3)C(=O)N(C)[C@@H](C(C)C)CC(=O)N(C)[C@@H](CC3CC3)C(=O)N[C@@H]([C@@H](C)CC)C(=O)N(C)CC(=O)N(C)[C@H]3C/C=C\CCN(C3=O)[C@@H](Cc3ccc(C(F)(F)F)cc3)C(=O)N(C)CC(=O)N[C@@H](CCc3cc(F)c(C(F)(F)F)c(F)c3)C(=O)N2C1 [PP1594] | A (a compound having 10 or more and less than 20 is denoted as A) | 48.8 nM | A (a compound having 10 or more and less than 20 is denoted as A)
12 | CCO[C@@H]1C[C@H]2C(=O)NC3(CCC3)C(=O)N(C)[C@@H](C3CCCC3)C(=O)N(C)[C@H](C(C)C)CC(=O)N(C)[C@@H](CC)C(=O)N[C@@H]([C@@H](C)CC)C(=O)N(C)CC(=O)N(C)[C@H]3C/C=C\CCN(C3=O)[C@@H](CC3CCCCC3)C(=O)N(C)CC(=O)N[C@@H](CCc3cc(F)c(C(F)(F)F)c(F)c3)C(=O)N2C1 [PP1601] | B (a compound having 3 or more and less than 10 is denoted as B) | 78.6 nM | A (a compound having 10 or more and less than 20 is denoted as A)
13 | CCO[C@@H]1C[C@H]2C(=O)NC3(CCC3)C(=O)N(C)[C@@H](C(CC)CC)C(=O)N(C)[C@H](C(=O)N3CCOCC3)CC(=O)N(C)[C@@H](CC(C)C)C(=O)N[C@@H]([C@@H](C)CC)C(=O)N(C)CC(=O)N(C)[C@H]3C/C=C\CCN(C3=O)[C@@H](Cc3ccc(C(F)(F)F)cc3)C(=O)N(C)CC(=O)N[C@@H](CCc3cc(F)c(C(F)(F)F)c(F)c3)C(=O)N2C1 [PP1287] | AA (a compound having 20 or more is denoted as AA) | 49.7 nM | A (a compound having 10 or more and less than 20 is denoted as A)
14 | CCO[C@@H]1C[C@H]2C(=O)NC3(CCC3)C(=O)N(C)[C@@H](C3CCCC3)C(=O)N(C)[C@H](C(=O)N(C)CC)CC(=O)N(C)[C@@H](CC3CCCC3)C(=O)N[C@@H]([C@@H](C)CC)C(=O)N(C)CC(=O)N(C)[C@H]3C/C=C\CCN(C3=O)[C@@H](Cc3ccc(C(F)(F)F)cc3)C(=O)N(C)CC(=O)N[C@@H](CCc3ccc(C(F)(F)F)c(OC)c3)C(=O)N2C1 [PP1573] | A (a compound having 10 or more and less than 20 is denoted as A) | 5.2 nM | A (a compound having 10 or more and less than 20 is denoted as A)
15 | CCO[C@@H]1C[C@H]2C(=O)NC3(CCC3)C(=O)N(C)[C@@H](C(CC)CC)C(=O)N(C)[C@H](C(=O)N(C)C)CC(=O)N(C)[C@@H](CC(C)C)C(=O)N[C@@H]([C@@H](C)CC)C(=O)N(C)CC(=O)N(C)[C@H]3C/C=C\CCN(C3=O)[C@@H](Cc3ccc(C(F)(F)F)cc3)C(=O)N(C)CC(=O)N[C@@H](CCc3ccc(Cl)c(Cl)c3)C(=O)N2C1 [PP1217] | AA (a compound having 20 or more is denoted as AA) | 17.8 nM | A (a compound having 10 or more and less than 20 is denoted as A)
